Read-outs that look alike come from different tables or passages of the source.
Molecular target: human Plasma Kallikrein (Homo sapiens (Human), UniProt P03952)
Assay: In vitro enzyme inhibition of human plasma kallikrein (Pro-Phe-Arg-AMC cleavage)
Format: biochemical
Description: The ability of the compounds disclosed herein to inhibit human plasma kallikrein activity was quantified according to the procedures below.
A 10 mM solution of the test compound was made in DMSO. This solution was serially diluted 1:5 in DMSO to yield 2000, 400, 80, 16, 3.2, 0.64, 0.128, 0.0256 and 0.00512 μM compound test solutions. A control tube containing only DMSO is included. 16 μL of each compound test solution was combined with 384 μL of assay buffer (50 mM Tris-HCl pH 7.5, 150 mM NaCl, 0.01% Triton X-100) to yield a “4× test compound buffer stock”.
Separately, a 40 nM solution of human Plasma Kallikrein (Abcam) and a 93.6 μM solution Pro-Phe-Arg-AMC (Bachem) were made using assay buffer. These solutions are hereby referred to as 4×hPK and 2×PFR-AMC, respectively.
60 μL of each 4× test compound buffer stock was combined with 60 μL of 4×hPK to yield 120 μL of “2× test compound buffer stock/2×hPK”. 50 μL was removed from this mixture and placed into duplicate wells on a Microfluor 1Black U-bottom microtiter plate (Thermo Scientific). This plate was incubated for 5 minutes at 37° C. To each well, 50 μL of pre-warmed 2×PFR-AMC was added to start the enzymatic reaction. Cleavage of PFR-AMC was monitored in a Biotek Synergy H4 reader set at 37° C. Readings are taken every 43 seconds for 1 hour. The highest mean velocity over 20 reads (˜15 minutes) is used to calculate the IC50. The IC50 is calculated using the Gen5 (Biotek Instruments).
The ability of the compounds listed in Table 2 to inhibit human plasma kallikrein activity was determined.

[1] = human plasma kallikrein, PFR-AMC substrate, 37° C., read-out: hPK IC50

Sequence of human Plasma Kallikrein (P03952 391-638 limits assumed): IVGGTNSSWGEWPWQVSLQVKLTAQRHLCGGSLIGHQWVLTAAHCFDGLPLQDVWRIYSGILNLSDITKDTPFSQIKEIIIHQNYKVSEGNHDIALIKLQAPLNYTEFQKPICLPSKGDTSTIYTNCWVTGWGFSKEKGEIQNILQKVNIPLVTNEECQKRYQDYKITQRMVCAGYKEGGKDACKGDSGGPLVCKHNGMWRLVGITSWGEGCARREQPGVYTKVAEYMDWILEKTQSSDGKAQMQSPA
Sequence of human Plasma Kallikrein (P03952 20-390 partner limits assumed): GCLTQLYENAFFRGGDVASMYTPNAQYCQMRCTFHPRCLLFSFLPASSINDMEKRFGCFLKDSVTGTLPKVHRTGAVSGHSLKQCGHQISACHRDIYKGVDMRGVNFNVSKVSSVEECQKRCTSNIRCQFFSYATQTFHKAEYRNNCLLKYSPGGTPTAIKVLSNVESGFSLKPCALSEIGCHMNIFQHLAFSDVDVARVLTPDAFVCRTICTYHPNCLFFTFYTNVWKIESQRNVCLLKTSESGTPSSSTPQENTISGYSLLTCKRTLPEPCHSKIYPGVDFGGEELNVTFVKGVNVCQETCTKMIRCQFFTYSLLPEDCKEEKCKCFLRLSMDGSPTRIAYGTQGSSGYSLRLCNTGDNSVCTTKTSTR

| SMILES | IC50 [1] | IC50 |
| --- | --- | --- |
| N#Cc1nn(Cc2cc(F)c3ncc(Cl)cc3c2)cc1C(=O)NCc1cc2c(Cl)c[nH]c2cc1F [Example 53, N-((3-chloro-6-fluoro-1H-indol-5-yl)methyl)-1-((3-chloro-8-fluoroquinolin-6-yl)methyl)-3-cyano-1H-pyrazole-4-carboxamide] | < 100 nM | – |
| N#Cc1nn(Cc2ccc3ncc(Cl)cc3c2)cc1C(=O)NCc1cnc2[nH]cc(Cl)c2c1 [Example 50, N-((3-chloro-1H-pyrrolo[2,3-b]pyridin-5-yl)methyl)-1-((3-chloroquinolin-6-yl)methyl)-3-cyano-1H-pyrazole-4-carboxamide] | 100 to 1000 nM | – |
| Cc1cc(N)nc(C)c1CNC(=O)c1cn(Cc2ccc3ncc(Cl)cc3c2)c2cnc(Cl)cc12 [Example 117, N-((6-amino-2,4-dimethylpyridin-3-yl)methyl)-5-chloro-1-((3-chloroquinolin-6-yl)methyl)-1H-pyrrolo[2,3-c]pyridine-3-carboxamide] | < 100 nM | – |
| Cc1cc(N)nc(C)c1CNC(=O)c1cn(Cc2ccc3ncc(Cl)cc3c2)c2ncnc(C#N)c12 [Example 136, N-((6-amino-2,4-dimethylpyridin-3-yl)methyl)-7-((3-chloroquinolin-6-yl)methyl)-4-cyano-7H-pyrrolo[2,3-d]pyrimidine-5-carboxamide] | – | 100 to 1000 nM |
| Cc1cc(N)nc(C)c1CNC(=O)c1nnc(Cc2cc(C(C)(C)O)c3ncc(Cl)cc3c2)o1 [Example 86, N-((6-amino-2,4-dimethylpyridin-3-yl)methyl)-5-((3-chloro-8-(2-hydroxypropan-2-yl)quinolin-6-yl)methyl)-1,3,4-oxadiazole-2-carboxamide] | < 100 nM | – |
| Cc1cc(N)nc(C)c1CNC(=O)c1cnn(Cc2cc(F)c3ncc(Cl)cc3c2)c1C(N)=O [Example 71, N4-((6-amino-2,4-dimethylpyridin-3-yl)methyl)-1-((3-chloro-8-fluoroquinolin-6-yl)methyl)-1H-pyrazole-4,5-dicarboxamide] | > 10000 nM | – |
| Cc1cc(N)nc(C)c1CNC(=O)c1ncc(Cc2ccc3ncc(Cl)cc3c2)[nH]1 [Example 41, N-((6-amino-2,4-dimethylpyridin-3-yl)methyl)-5-((3-chloroquinolin-6-yl)methyl)-1H-imidazole-2-carboxamide] | 100 to 1000 nM | – |
| CCOC(=O)c1nc(C(=O)NCc2c(C)cc(N)nc2C)nn1Cc1ccc2ncc(Cl)cc2c1 [Example 142, ethyl 3-(((6-amino-2,4-dimethylpyridin-3-yl)methyl)carbamoyl)-1-((3-chloroquinolin-6-yl)methyl)-1H-1,2,4-triazole-5-carboxylate] | > 10000 nM | – |
| Cc1cc(N)nc(C)c1CNC(=O)c1nn(Cc2ccc3ncc(Cl)cc3c2)c2cnc(C#N)cc12 [Example 130, N-((6-amino-2,4-dimethylpyridin-3-yl)methyl)-1-((3-chloroquinolin-6-yl)methyl)-5-cyano-1H-pyrazolo[3,4-c]pyridine-3-carboxamide] | < 100 nM | – |
| Cc1cc(N)nc(C)c1CNC(=O)c1cnc(C(=O)c2ccc3ncc(Cl)cc3c2)o1 [Example 80, N-((6-amino-2,4-dimethylpyridin-3-yl)methyl)-2-(3-chloroquinoline-6-carbonyl)oxazole-5-carboxamide] | > 10000 nM | – |
| COc1cc2c(C(=O)NCc3c(C)cc(N)nc3C)cn(Cc3ccc4ncc(Cl)cc4c3)c2cn1 [Example 121, N-((6-amino-2,4-dimethylpyridin-3-yl)methyl)-1-((3-chloroquinolin-6-yl)methyl)-5-methoxy-1H-pyrrolo[2,3-c]pyridine-3-carboxamide] | < 100 nM | – |
| Cc1cc(N)nc(C)c1CNC(=O)c1cn(Cc2ccc3ncc(Cl)cc3c2)c2ncc(C#N)cc12 [Example 135, N-((6-amino-2,4-dimethylpyridin-3-yl)methyl)-1-((3-chloroquinolin-6-yl)methyl)-5-cyano-1H-pyrrolo[2,3-b]pyridine-3-carboxamide] | – | 100 to 1000 nM |
